Test results published in patent US20100093609A1, “PRODRUGS OF TRICIRIBINE AND TRICIRIBINE PHOSPHATE” (priority 2007, published 2010).

Tests used:
[1] = Systemic plasma concentrations after duodenal administration to rats; settings: rat, duodenal administration of 3 mg
[2] = Stability in 100 mM phosphate buffer, pH 6.5; settings: pH 6.5, 37° C., 0-3 hours, LC/MS/MS
in vitro = settings: human

CN1N=C(N)c2cn([C@@H]3O[C@H](COP(=O)(O)O)[C@@H](O)[C@H]3O)c3ncnc1c23 [TCNP, 6-amino-4-methyl-8-(beta.-D-ribofuranosyl)pyrrolo[4,3,2-de]pyrimido[4,5-c]pyridazine 5′ phosphate]
intestinal absorption / plasma levels (in words) [1]: very little intestinal absorption
peak plasma levels ([1]; FIGS. 5 and 6): about 1.25 ng/ml
AUC0-4 hr of the administered compound (parent or intact prodrug) ([1]; plasma over 4 hours): 4.4 ± 0.9 (ng/ml)/hr
stability in buffer (in words) [2]: stable
IC50 at 8 days (in vitro): 32 µM
cytotoxic effects (in words) (HFF cells): more toxic than TCN
